# Source: PubChem BioAssay (NCI)
#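 Following 48 hours of exposure in 96-well plates, responses at five concentrations were used to interpolate endpoints linearly. GI50 marks 50% less growth. TGI marks complete inhibition of growth.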
# Columns and labels:
# Assay in all cases: growth of human tumour cells (NCI), 48 h
# [1] = tested on: ACHN renal
# [2] = tested on: RPMI-8226 leukemia
# [3] = tested on: HOP-62 NSCLC
# [4] = tested on: KM12 colon
# [5] = tested on: A498 renal
# [6] = tested on: CCRF-CEM leukemia
# [7] = tested on: K-562 leukemia
# [8] = tested on: MOLT-4 leukemia
# [9] = tested on: 786-0 renal
# [10] = tested on: NCI-H460 lung
Compound,TGI [1] [µM],TGI [2] [µM],TGI [3] [µM],TGI [4] [µM],TGI [5] [µM],TGI [6] [µM],TGI [7] [µM],TGI [8] [µM],TGI [9] [µM],TGI [10] [µM],GI50 [1] [µM],GI50 [2] [µM],GI50 [3] [µM],GI50 [4] [µM],GI50 [5] [µM],GI50 [6] [µM],GI50 [7] [µM],GI50 [8] [µM],GI50 [9] [µM],GI50 [10] [µM]
CCC1(O)C(=O)OCc2c1cc1n(c2=O)Cc2c-1nc1ccccc1c2OC (configuration not stated),0.06,0.511,< 0.01,10.8,0.319,< 0.01,> 100,< 0.0195,0.0249,,,,,,,,,,,
Cn1c(O)c(C=N)c(=O)n(C)c1=O,> 100,> 100,,> 100,,> 100,> 100,> 100,> 100,> 100,,,,,,,,,,
Cc1oncc1C(=O)Nc1ccc(C(F)(F)F)cc1,> 100,> 100,> 100,> 100,58.7,> 100,> 100,> 100,> 100,> 100,41.7,17.5,> 100,35.8,9.97,17.8,12.1,36.4,54.5,24.8
O=C(O[C@H]1CN[C@H](C#Cc2cc3ncnc(Nc4ccc(Cc5ccccc5)cc4)c3s2)C1)N1CCOCC1,> 25,24.9,> 14.1,8.72,6.53,> 25,> 25,> 25,> 25,> 25,3.53,6.47,5.15,4.28,0.768,6.98,8.44,6.93,7.3,7.52
CC1=C(C)C(=O)c2c(cc3c4ccccc4ccn23)C1=O,> 100,> 100,> 100,> 100,,,> 100,> 100,> 100,> 100,,,,,,,,,,
Nc1ccn(C2OC(CO[P+](=O)OC3C(CO[P+](=O)OC4C(CO[P+](=O)OC5C(CO[P+](=O)OC6C(CO[P+](=O)OC7C(CO[P+](=O)OC8C(CO[P+](=O)OC9C(CO[P+](=O)OC%10C(CO[P+](=O)OC%11C(CO)OC(n%12ccc(N)nc%12=O)C%11(F)F)OC(n%11ccc(N)nc%11=O)C%10(F)F)OC(n%10ccc(N)nc%10=O)C9(F)F)OC(n9ccc(N)nc9=O)C8(F)F)OC(n8ccc(N)nc8=O)C7(F)F)OC(n7ccc(N)nc7=O)C6(F)F)OC(n6ccc(N)nc6=O)C5(F)F)OC(n5ccc(N)nc5=O)C4(F)F)OC(n4ccc(N)nc4=O)C3(F)F)C(O)C2(F)F)c(=O)n1 (configuration not stated),,,,> 100,> 100,,> 100,,> 100,,,,0.0175,2.03,,,2.71,,0.0605,
NC(=O)c1cccc(N)c1,> 100,> 100,> 100,> 100,> 100,> 100,> 100,> 100,> 100,> 100,> 100,> 100,> 100,> 100,> 100,> 100,> 100,> 100,> 100,> 100
COC(=O)c1c2c(c[n+]([O-])c1C)C(=O)C(NCc1ccccc1)=CC2=O,2.2,3.79,2.94,3.03,2.65,> 25.8,,2.59,3.8,1.65,1.02,0.996,1.42,0.608,1.32,0.512,0.529,0.412,1.69,0.425
Nc1ccccc1C#Cc1ccccc1C#Cc1ccccc1N,29.7,,26.7,14.7,19.8,16.2,12.8,11.9,31.2,> 100,14,,11,2.97,6,3.21,2.01,2.12,11.9,5.89
CCOC(=O)NC(=O)c1cn(CCCCCCCCCCC(=O)N2CCN(CCn3cc(C(=O)NC(=O)OCC)c(=O)[nH]c3=O)CC2)c(=O)[nH]c1=O,> 100,> 100,> 100,,> 100,> 100,> 100,> 100,> 100,> 100,,,,,,,,,,
Cn1nc(-c2ccccc2)c(C(=O)/C=C/c2ccccc2)c(N2CCCCC2)c1=O,> 100,,42.8,,,> 100,> 100,> 100,> 100,> 100,,,,,,,,,,
N#CC(NC12CC3CC(CC(C3)C1)C2)c1ccccc1 (configuration not stated),> 100,> 100,> 100,> 100,,> 100,> 100,> 100,> 100,> 100,,,,,,,,,,
C[CH2][Sn]1([CH2]C)[O]C2C(O)OC(CO)C(O)C2[O]1 (configuration not stated),> 100,23.8,> 100,> 100,42,,41.4,40.5,68.1,> 100,40.3,7.16,> 100,90.4,18.9,,16.7,12.8,23,> 100
COC(=O)C1=C2C3=C(C(=O)c4ccccc4C3=O)N(Cc3ccccc3)C2(OC(C)=O)C=CC1=O (configuration not stated),26.4,8.83,13.7,,,> 100,> 100,> 100,10.1,> 100,8.4,1.09,2.94,,,0.378,4.69,0.846,2.28,5.93
O=c1oc2c(Br)c(O)c(Br)cc2c2ccccc12,> 100,75.4,> 100,,58.5,65.4,50.9,67.1,> 100,57,,,,,,,,,,
COC1OC(COCc2ccc(Cl)cc2)C(OCc2ccc(Cl)cc2)C1O (configuration not stated),40.2,> 100,32.1,29.3,,46.7,38.5,66.6,30.8,32,,,,,,,,,,
